These results are taken from publication PMC6476888, “Design and synthesis of anticancer 1-hydroxynaphthalene-2-carboxanilides with a p53 independent mechanism of action” (Scientific Reports, 2019).

For this test, the system named is caspase-8, caspase-9, AIF, cytochrome c, PARP in HCT116 cells. Description: Western blot of proapoptotic proteins. Type of test: cell-based, human. Particulars: p53 null cells. The procedure:
These are shown in Figure S5 supplementary information. […] This observation corresponds with the high selectivity of 5s towards the p53^−/− cell line. Moreover, no activation of caspase-8 or AIF was detected after incubation with the tested anilides. Similarly, the cytochrome c level was unaffected. Leakage of cytochrome c from the mitochondria is the first step of caspase-dependent apoptosis, which is often initiated by p53 activation. […] On the other hand, cleavage of PARP as well as a small but evident increase in the PARP level in response to the active compounds was observed. PolyADP-ribose polymerase is the nuclear factor that is responsible for detecting and repairing single strand breaks in DNA[79]. Its inhibition by the cleavage that is induced with caspase-3 is also a classic sign of apoptosis. However, the complex role of this protein is still vague especially in terms of any alternative activation and deactivation factors[80],[81]. Special attention is being paid to alternative ways of cell death for their potential usefulness in designing selectively targeted drugs[82]–[84].
The HCT116 cells were seeded in 3-cm Petri dishes (Nunc) at a density of 0.5·10^6 cells/well and incubated overnight. […] The protein concentration was determined using a Micro BCA™ Protein Assay Kit (Thermo-Fisher Scientific, Waltham, MA, USA c) according to the manufacturer’s instructions. […]

Take `O=C(Nc1ccc(F)c(Cl)c1)c1ccc2ccccc2c1O` [5s]: the “cleavage of caspases-8 and −9” value is reported as “some cleavage”.
